target: T1, Acyl-CoA: Cholesterol Acyltransferase (ACAT) (Rattus norvegicus, UniProt Q7TQM4); assay: Inhibition of Acyl-CoA: Cholesterol Acyltransferase (ACAT) in Hepatic Microsomes (In Vitro Assay); format: biochemical, rat (male Sprague Dawley); settings: 75 μM 14C-oleoyl-CoA, pH 7.4, 37° C., 10 min, read-out: ACAT Inhibitory Activity (In Vitro) (IC50)
T1 construct: centrifuged at 105,000×g for 1 hour to pellet the microsomes; from tissue; host or cells: liver microsomes of male Sprague Dawley rats
T1 sequence (Q7TQM4 1-524): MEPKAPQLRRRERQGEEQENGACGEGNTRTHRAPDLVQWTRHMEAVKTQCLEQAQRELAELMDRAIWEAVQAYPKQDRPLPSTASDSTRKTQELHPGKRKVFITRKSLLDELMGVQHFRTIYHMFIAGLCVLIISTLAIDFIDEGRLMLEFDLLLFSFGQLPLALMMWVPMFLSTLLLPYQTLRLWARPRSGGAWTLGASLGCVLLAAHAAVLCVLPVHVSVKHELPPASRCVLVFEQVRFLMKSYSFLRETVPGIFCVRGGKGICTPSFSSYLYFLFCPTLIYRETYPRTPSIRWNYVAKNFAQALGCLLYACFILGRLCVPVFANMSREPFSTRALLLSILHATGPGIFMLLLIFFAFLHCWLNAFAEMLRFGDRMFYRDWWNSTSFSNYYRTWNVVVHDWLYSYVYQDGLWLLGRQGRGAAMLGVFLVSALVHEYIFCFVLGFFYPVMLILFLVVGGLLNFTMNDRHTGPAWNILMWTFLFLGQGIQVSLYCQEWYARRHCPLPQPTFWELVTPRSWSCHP
Description: A. Assay of the Inhibition of Acyl-CoA: Cholesterol Acyltransferase (ACAT) in Hepatic Microsomes (In Vitro Assay)
The ability of the compounds to inhibit ACAT, the enzyme responsible for the intracellular synthesis of cholesteryl esters, was tested as follows. Male Sprague Dawley rats weighing 150-300 g, were fed rat chow ad libitum. The animals were fasted for twenty-four hours prior to being euthanized by CO2. The livers were perfused in situ with 50 ml of cold 0.25 sucrose, excised, and homogenized in three volumes of 0.1M phosphate buffer, pH 7.4, that contained 0.5 mM EDTA (ethylenediamine-tetraacetic acid), 1.0 mM glutathione, 0.25M sucrose and […] leupeptin. Microsomes were obtained by differential centrifugation; the supernatant from an initial spin at 15,000×g for 15 minutes was centrifuged at 105,000×g for 1 hour to pellet the microsomes. The microsomes were suspended in homogenization buffer, reisolated by centrifugation, and stored at -70° C. Microsomes were used within one month of preparation.
The control assay in a final volume of 200 μl consisted of 200 μg of microsomal protein, 75 μM ^14 C-oleoyl-CoA (10,000 dpm/nmol) in 0.1M phosphate, pH 7.4, that contained 1 mM glutathione. Compounds were added in 5 μl of DMSO (dimethyl sulfoxide) and additional controls were run with DMSO only. All components, except the oleoyl-CoA, were preincubated for 15 min. at 37° C. prior to the initiation of the reaction by the addition of oleoyl-CoA. The assay was terminated after 10 min by the addition of 4 ml of chloroform:methanol (2:1, v/v). 20,000 dpm of ^3 H-cholesteryl oleate and 10 μg of unlabeled cholesteryl oleate and oleic acid were added as an internal standard and carriers, respectively. After allowing 10 min. for lipid extraction, the samples were centrifuged at 1,000×g for 10 min to separate the solvent layers. The chloroform layer containing the neutral lipids was spotted onto a Baker SI250-Pa silica gel TLC plate and the plate developed using a hexane:diethyl ether:acetic acid (170:30:1) v/v/v) mobile phase. The lipids were visualized by their interaction with iodine vapor and the cholesteryl ester spot was scraped into a scintillation vial and counted. The specific activity of ACAT in the control incubation averaged 260 pmol/min/mg microsomal protein. The data obtained are expressed as the concentration at which ACAT activity is inhibited by 50% (IC50).

| SMILES | IC50 [nM] |
| --- | --- |
| CCCCCCSC(C(=O)Nc1c(SC)cc(C)nc1SC)c1ccc(OC)c(OC)c1 (stereo not drawn) [Example 232, N-[2,4-bis(methylthio)-6-methyl-3-pyridyl]-α-hexylthio-3,4-dimethoxy-phenylacetamide] | < 1000 |
| CCCCCCSC(C(=O)Nc1c(SC)cc(C)nc1SC)c1ccc(OCCCC)cc1 (stereo not drawn) [Example 260, N-[2,4-bis(methylthio)-6-methyl-3-pyridyl]-α-hexylthio-4-butoxy-phenylacetamide] | < 1000 |
| COc1ccc(CSC(C(=O)Nc2c(SC)cc(C)nc2SC)c2ccc(F)cc2F)cc1 (stereo not drawn) [Example 210, N-[2,4-bis(methylthio)-6-methyl-3-pyridyl]-α-(4-methoxy-benzylthio)-2,4-difluoro-phenylacetamide] | < 1000 |
| CSc1cc(C)nc(SC)c1NC(=O)C(Sc1ccc(F)cc1)c1ccc(Cl)cc1 (stereo not drawn) [Example 104, N-[2,4-bis(methylthio)-6-methyl-3-pyridyl]-α-(4-fluoro-phenylthio)-4-chloro-phenylacetamide] | < 1000 |
| CCCCOc1ccc(C(SCc2ccccc2)C(=O)Nc2c(SC)cc(C)nc2SC)cc1 (stereo not drawn) [Example 264, N-[2,4-bis(methylthio)-6-methyl-3-pyridyl]-α-benzylthio-4-butoxy-phenylacetamide] | < 1000 |
| CSc1cc(C)nc(SC)c1NC(=O)C(Sc1ccc(F)cc1)c1ccc(C(F)(F)F)cc1 (stereo not drawn) [Example 393, N-[2,4-bis(methylthio)-6-methyl-3-pyridyl]-α-(4-fluoro-phenylthio)-4-trifluoromethyl-phenylacetamide] | < 1000 |
| COc1ccc(C(SCc2ccccc2)C(=O)Nc2c(SC)cc(C)nc2SC)cc1OC (stereo not drawn) [Example 236, N-[2,4-bis(methylthio)-6-methyl-3-pyridyl]-α-benzylthio-3,4-dimethoxy-phenylacetamide] | < 1000 |

The next lines start with the values.

| IC50 [nM] | SMILES |
| --- | --- |
| < 1000 | COc1ccc(C(SCc2ccc(F)cc2)C(=O)Nc2c(SC)cc(C)nc2SC)cc1 (stereo not drawn) [Example 124, N-[2,4-bis(methylthio)-6-methyl-3-pyridyl]-α-(4-fluoro-benzylthio)-4-methoxy-phenylacetamide] |
| 1000 to 10000 | COc1ccc(C(OC)C(=O)Nc2c(C(C)C)cccc2C(C)C)cc1 (stereo not drawn) [Example 147, N-(2,6-diisopropyl-phenyl)-α-O-methyl-4-methoxymandeloamide] |
| < 1000 | CSc1cc(C)nc(SC)c1NC(=O)C(SCc1ccccc1)c1ccc(C(F)(F)F)cc1 (stereo not drawn) [Example 379, N-[2,4-bis(methylthio)-6-methyl-3-pyridyl]-α-benzylthio-4-trifluoromethyl-phenylacetamide] |
| < 1000 | CCCCCCSC(C(=O)Nc1c(SC)cc(C)nc1SC)c1ccc(F)cc1F (stereo not drawn) [Example 204, N-[2,4-bis(methylthio)-6-methyl-3-pyridyl]-α-hexylthio-2,4-difluoro-phenylacetamide] |
| < 1000 | CSc1cc(C)nc(SC)c1NC(=O)C(SCc1ccc(Cl)cc1)c1ccc(Cl)cc1 (stereo not drawn) [Example 92, N-[2,4-bis(methylthio)-6-methyl-3-pyridyl]-α-(4-chloro-benzylthio)-4-chloro-phenylacetamide] |
| < 1000 | CCCCCCSC(C(=O)Nc1c(SC)cc(C)nc1SC)c1ccc(Cl)c(Cl)c1 (stereo not drawn) [Example 176, N-[2,4-bis(methylthio)-6-methyl-3-pyridyl]-α-hexylthio-3,4-dichloro-phenylacetamide] |
| < 1000 | CSc1cc(C)nc(SC)c1NC(=O)C(Sc1ccccc1)c1ccccc1 (single isomer, unassigned) [Example 63, N-[2,4-his (methylthio)-6-methyl-3-pyridyl]-L-(+)-α-phenylthio-phenylacetamide] |
